Test results: ChEMBL document CHEMBL1857833, “Screening and optimization of specific chemical series against human African Trypanosomiasis (HAT)”
In brackets after ≈: the same amount, converted by molar mass. Several values for one entry are separate records, joined by “and”; a condition that tells them apart may be missing. Identical values can stand only once.

How the values were obtained:
[1] = DNDI: Lipophilicity measured in Chromatographic hydrophobicity index (CHI) assay, pH 7.4; format: physicochemical; conditions: buffer
[2] = DNDI: Solubility in phosphate buffered saline at pH7.4 measured by nephelometry at room temperature (NEPH-RT); format: physicochemical; conditions: pH 7.4
[3] = DNDI: half-life in mouse S9 microsomes at a concentration of 1uM; format: ADME, subcellular, Liver, S9 fraction
[4] = DNDI: half-life in mouse S9 microsomes at a concentration of 10uM; format: ADME, subcellular, Liver, S9 fraction
[5] = (§1) DNDI: Cytotoxicity against L929 mouse fibroblasts, 72 hour.; format: toxicity, cell-based; conditions: mouse, L929 mouse fibroblasts
Trypanosoma brucei [6] = assay: DNDI: Inhibition of Human African Trypanosomiasis, SBRI 427, in vitro; format: functional, organism-based
[7] = DNDI: half life in human liver microsomes at a concentration of 10uM; format: ADME, Microsome
MDR1 (ABCB1) [8] = target: T1, MDR1 (ABCB1) (Homo sapiens, UniProt P08183); assay: DNDI: % of compound recovered from basolateral to apical permeability assay in MDCK cells transfected with human MDR1; format: ADME, cell-based, Canis lupus familiaris; conditions: dog
Leishmania donovani = assay: DNDI: Inhibition of formation of Leishmania donovani (strain MHOM/ET/67/L82) axenic amastigotes, in vitro.; format: functional, organism-based
Trypanosoma cruzi = assay: DNDI: Inhibition of Chagas Disease parasite Trypanosoma cruzi (Tulahuen LacZ, Clone C4), in vitro.; format: functional, organism-based
Trypanosoma brucei [9] = assay: DNDI: Inhibition of Human African Trypanosomiasis, EATRO 110, in vitro; format: functional, organism-based
[10] = DNDI: in vitro intrinsic clearance in mouse liver microsomes at a concentration of 10uM; format: ADME, Microsome; conditions: read-out: CLint in vitro
MDR1 (ABCB1) [11] = target: T1, MDR1 (ABCB1); assay: DNDI: Efflux ratio for permeability from basolateral to apical side to apical to basolateral side of MDCK cells transfected with human MDR1; format: ADME, cell-based, Canis lupus familiaris; conditions: dog, read-out: B-A/A-B
[12] = mouse, microsomes, 1 µM
Description: (§4) DNDI: in vitro intrinsic clearance in mouse liver microsomes at a concentration of 1uM

MDR1 (ABCB1) [13] = target: T1, MDR1 (ABCB1); assay: DNDI: Apparent permeability from basolateral to apical side of the MDCK cell transfected with human MDR1 after 60 mins at a concentration of 3uM; format: ADME, cell-based, Canis lupus familiaris; conditions: dog
[14] = DNDI: half life in mouse liver microsomes at a concentration of 10uM; format: ADME, Microsome
[15] = DNDI: Cytotoxicity against L-6 rat myoblasts from skeletal muscle cells; format: toxicity, cell-based, L6; conditions: L-6 rat skeletal muscle myoblasts
[16] = (§2) DNDI: Cytotoxicity against L929 mouse fibroblasts, CYTO-SP, 24 hour; format: toxicity, cell-based; conditions: mouse, L929 mouse fibroblasts
[17] = DNDI: in vitro intrinsic clearance in human liver microsomes at a concentration of 10uM; format: ADME, Microsome
Plasmodium falciparum = assay: DNDI: Inhibition of the malaria parasite Plasmodium falciparum, in vitro; format: functional, organism-based; conditions: K1
in vitro [18] = conditions: mouse, t (1 / 2)
Description: (§5) DNDI: half life in mouse liver microsomes at a concentration of 1uM

MDR1 (ABCB1) [19] = target: T1, MDR1 (ABCB1); assay: DNDI: Apparent permeability from apical to basolateral side of the MDCK cell transfected with human MDR1; format: ADME, cell-based, Canis lupus familiaris; conditions: dog
[20] = DNDI: Solubility in phosphate buffered saline at pH7.4 measured by optical density (turbidimetry) at room temperature (OD-RT); format: physicochemical; conditions: pH 7.4
[21] = tested on: Trypanosoma brucei rhodesiense; assay: DNDI: Inhibition of Human African Trypanosomiasis (HAT), STIB 900, in vitro; format: functional, organism-based
MDR1 (ABCB1) [22] = target: T1, MDR1 (ABCB1); assay: DNDI: % of compound recovered from apical to basolateral permeability assay in MDCK cells transfected with human MDR1; format: ADME, cell-based, Canis lupus familiaris; conditions: dog
Trypanosoma brucei [23] = assay: DNDI: Inhibition of Human African Trypanosomiasis, Cross 22, in vitro; format: functional, organism-based
L929 [24] = assay: as §2; format: toxicity, cell-based; conditions: l929
MDR1 (ABCB1) [25] = target: T1, MDR1 (ABCB1); assay: DNDI: Apparent permeability from apical to basolateral side of the MDCK cell transfected with human MDR1after 60 mins at a concentration of 3uM; format: ADME, cell-based, Canis lupus familiaris; conditions: dog, MDCK-MDR1
MDR1 (ABCB1) [26] = target: T1, MDR1 (ABCB1); assay: DNDI: % of compound recovered from apical to basolateral permeability assay in MDCK cells transfected with human MDR1 after 60 mins at a concentration of 3uM in the presence of GF120918; format: ADME, cell-based, Canis lupus familiaris; conditions: dog, MDCK-MDR1, with GF120918 (concentration not stated)
MDR1 (ABCB1) [27] = target: T1, MDR1 (ABCB1); assay: DNDI: % of compound recovered from apical to basolateral permeability assay in MDCK cells transfected with human MDR1 after 60 mins at a concentration of 3uM; format: ADME, cell-based, Canis lupus familiaris; conditions: dog
Trypanosoma brucei [28] = assay: DNDI: Mean survival time in days (MSD) of mice after intraperitoneal injection of Human African Trypanosomiasis (HAT), EATRO 110, in vivo at 5 mg/kg/day for 4 days.; format: functional, Mus musculus
in vitro [29] = conditions: mouse, liver microsomes
Description: as §4

Trypanosoma brucei [30] = assay: (§3) DNDI: Mean survival time in days (MSD) of mice after intraperitoneal injection of Human African Trypanosomiasis (HAT), EATRO 110, in vivo at 20 mg/kg/day for 4 days.; format: functional, Mus musculus
[31] = mouse, microsomes, 1 µM; remark: listed apart in the source
Description: as §5

in vitro [32] = conditions: human, liver microsomes, t (1 / 2)
Description: DNDI: half life in human liver microsomes at a concentration of 1uM

in vitro [33] = conditions: human, liver microsomes, CLint in vitro
Description: DNDI: in vitro intrinsic clearance in human liver microsomes at a concentration of 1uM

Trypanosoma brucei [34] = assay: as §3; format: functional, Mus musculus; remark: listed apart in the source
L929 [35] = assay: as §1; format: toxicity, cell-based; conditions: l929
[36] = Trypanosoma brucei, SBRI 427, read-out: IC50

T1 sequence (P08183 whole entry): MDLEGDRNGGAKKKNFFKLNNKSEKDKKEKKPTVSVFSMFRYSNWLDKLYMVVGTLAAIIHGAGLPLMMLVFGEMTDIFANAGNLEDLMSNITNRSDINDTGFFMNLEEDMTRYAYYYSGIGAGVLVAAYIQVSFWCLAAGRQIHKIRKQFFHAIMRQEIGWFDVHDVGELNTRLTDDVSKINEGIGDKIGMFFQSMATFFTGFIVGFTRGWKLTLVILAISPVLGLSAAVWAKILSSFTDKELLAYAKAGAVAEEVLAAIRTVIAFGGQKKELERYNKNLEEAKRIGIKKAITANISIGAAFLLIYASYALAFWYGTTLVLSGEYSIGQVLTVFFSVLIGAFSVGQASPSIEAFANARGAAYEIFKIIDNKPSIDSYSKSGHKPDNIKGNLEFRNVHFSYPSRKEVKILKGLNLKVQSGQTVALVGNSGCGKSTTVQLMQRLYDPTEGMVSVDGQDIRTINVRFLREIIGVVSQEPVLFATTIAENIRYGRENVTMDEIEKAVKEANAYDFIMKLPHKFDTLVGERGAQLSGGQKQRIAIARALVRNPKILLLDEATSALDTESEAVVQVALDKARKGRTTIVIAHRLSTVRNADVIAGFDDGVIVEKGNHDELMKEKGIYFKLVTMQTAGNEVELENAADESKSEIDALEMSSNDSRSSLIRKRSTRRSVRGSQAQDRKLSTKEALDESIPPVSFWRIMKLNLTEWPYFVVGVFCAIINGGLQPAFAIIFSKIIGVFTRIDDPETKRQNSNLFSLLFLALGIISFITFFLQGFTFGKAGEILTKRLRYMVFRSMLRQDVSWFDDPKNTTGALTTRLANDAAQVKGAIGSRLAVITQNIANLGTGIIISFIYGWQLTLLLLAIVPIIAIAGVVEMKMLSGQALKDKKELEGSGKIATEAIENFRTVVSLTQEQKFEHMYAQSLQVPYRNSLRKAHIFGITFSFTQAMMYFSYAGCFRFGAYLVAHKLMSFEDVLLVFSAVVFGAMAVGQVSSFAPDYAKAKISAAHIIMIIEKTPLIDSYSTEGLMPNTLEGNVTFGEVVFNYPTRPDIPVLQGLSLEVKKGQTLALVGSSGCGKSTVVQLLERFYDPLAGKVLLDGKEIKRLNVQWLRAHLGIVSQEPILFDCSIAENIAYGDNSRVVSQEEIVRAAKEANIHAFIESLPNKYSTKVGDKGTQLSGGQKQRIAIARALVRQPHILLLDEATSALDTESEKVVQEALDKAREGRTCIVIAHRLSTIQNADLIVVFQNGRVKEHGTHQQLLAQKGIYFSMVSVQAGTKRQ

Compound	chromatographic logD [1]	solubility kinetic [2] [µM]	half-life at 1 µM [3] [min]	half-life at 10 µM [4] [min]	IC50 at 72 h [5] [µg/mL]	IC50 (Trypanosoma brucei [6]; [36]) [µg/mL]	half-life at 10 µM [7] [min]	recovery (MDR1 (ABCB1) [8]) [%]	IC50 (Leishmania donovani) [µg/mL]	IC50 (Trypanosoma cruzi) [µg/mL]	IC50 (Trypanosoma brucei [9]) [µg/mL]	microsomal CLint at 10 µM [10] [µL/min/mg]	efflux ratio (MDR1 (ABCB1) [11])	CLint in vitro [12] [µL/min/mg]	IC50 [15] [µg/mL]	IC50 at 24 h [16] [µg/mL]	IC50 (Plasmodium falciparum) [µg/mL]	half-life at 1 µM (in vitro [18]; liver microsomes) [min]	IC50 [21] [µg/mL]	IC50 (Trypanosoma brucei [23]) [µg/mL]	other results
Fc1ccc(-c2cc3nc(-c4ccccc4)cc(NC4CCNCC4)n3n2)cc1	4.2	13 (≈ 5.04 µg/mL)	> 350	> 350	1.11 (≈ 2.86 µM)	0.555 (≈ 1.43 µM)															
CCCCCC(C)NCc1coc(-c2ccc(OCC)cc2)n1 (configuration not stated)	4.95				5.27 (≈ 16.7 µM)		88	56	12.3 (≈ 38.8 µM)	7.7 (≈ 24.3 µM)	0.8 (≈ 2.53 µM)	3	1	36	8.28 (≈ 26.2 µM)	> 50	1.38 (≈ 4.36 µM)	23	0.342 (≈ 1.08 µM)	0.67 (≈ 2.12 µM)	Papp B→A at 1 h, 3 µM (MDR1 (ABCB1) [13]): 22 ×10⁻⁶ cm/s; half-life at 10 µM [14]: 882 min; CLint in vitro [17]: 33 µL/min/mg; Papp A→B (MDR1 (ABCB1) [19]): 20.9 ×10⁻⁶ cm/s; solubility kinetic [20]: 32 µM (≈ 10.1 µg/mL); recovery (MDR1 (ABCB1) [22]): 33%
CCOc1ccc(-c2nc(CNC3CC(C)CC(C)(C)C3)co2)cc1 (configuration not stated)					< 3.13	1.23 (≈ 3.59 µM)					1.03 (≈ 3.01 µM)			50		44.1 (≈ 129 µM)		17		0.79 (≈ 2.31 µM)	IC50 (L929 [24]): 29.3 µg/mL (≈ 85.6 µM); IC50 (Trypanosoma brucei [6]): 0.79 µg/mL and 1.06 µg/mL and 1.41 µg/mL and 0.84 µg/mL
Cc1cc(N2CCNCC2)n2nc(-c3cccc(F)c3)cc2n1	3.44	50 (≈ 15.6 µg/mL)	45.7	214	9.09 (≈ 29.2 µM)	> 5															Papp A→B at 1 h, 3 µM (MDR1 (ABCB1) [25]): 45.2 ×10⁻⁶ cm/s; recovery at 1 h, 3 µM (MDR1 (ABCB1) [26]): 63.6%; recovery at 1 h, 3 µM (MDR1 (ABCB1) [27]): 70.4%
O/N=C(/NC1CCCCC1)c1cccnc1Oc1ccccc1	3.92				> 10	1.17 (≈ 3.76 µM)	314	83	44 (≈ 141 µM)	> 30		275	1.7	423	43.9 (≈ 141 µM)	> 50	4.2 (≈ 13.5 µM)		27.6 (≈ 88.6 µM)		Papp B→A at 1 h, 3 µM (MDR1 (ABCB1) [13]): 51.4 ×10⁻⁶ cm/s; half-life at 10 µM [14]: 11 min; CLint in vitro [17]: 9 µL/min/mg; half-life at 1 µM (in vitro [18]; microsomes): 2 min; Papp A→B (MDR1 (ABCB1) [19]): 30.9 ×10⁻⁶ cm/s; solubility kinetic [20]: 63 µM (≈ 19.6 µg/mL); recovery (MDR1 (ABCB1) [22]): 66%
CCCCc1ccc(-c2nc(CNC3CC(C)CC(C)(C)C3)co2)cc1 (configuration not stated)	5.99	6 (≈ 2.13 µg/mL)			0.64 (≈ 1.81 µM)				5.26 (≈ 14.8 µM)	2 (≈ 5.64 µM)				3	1.73 (≈ 4.88 µM)	> 50	0.521 (≈ 1.47 µM)	192	0.348 (≈ 0.982 µM)	0.34 (≈ 0.959 µM)	MSD (Trypanosoma brucei [28]): 4 days; microsomal CLint at 1 µM (in vitro [29]): 4 µL/min/mg; MSD (Trypanosoma brucei [30]): 2.5 days; t (1 / 2) [31]: 251 min and 224 min; half-life at 1 µM (in vitro [32]): 59 min; microsomal CLint at 1 µM (in vitro [33]): 14 µL/min/mg; MSD (Trypanosoma brucei [34]): 4 days; IC50 (L929 [35]): 1.26 µg/mL (≈ 3.55 µM)
